For eight molecules, GI50 and TGI results are on record in PubChem BioAssay (NCI).

Test systems include TK-10 renal; NCI-H226 lung; HT29 colon; K-562 leukemia; HL-60(TB) leukemia; RPMI-8226 leukemia; UACC-62 melanoma; IGROV1 ovarian; RXF 393 renal; OVCAR-8 ovarian.
Common to all, as to assay: growth of human tumour cells (NCI), 48 h

Each structure is given as a SMILES string. Several values for one entry are separate records, joined by “and”; a condition that tells them apart may be missing. Identical values can stand only once.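 These data come from cells grown in 96-well plates and exposed to compound for 48 hours at five concentrations. Abbreviation: GI50, concentration required for 50% inhibition of growth. TGI: concentration producing complete growth inhibition.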

In the case of `COc1cc2c3c(n(CCCn4ccnc4)c(=O)c2cc1OC)-c1ccccc1C3=O`, the GI50 was 0.923 µM with TK-10 renal; 0.05 µM in the assay on NCI-H226 lung; less than 0.0406 µM in the assay on HT29 colon; less than 0.0155 µM with K-562 leukemia; less than 10 nM with HL-60(TB) leukemia; less than 17.1 nM in the assay with RPMI-8226 leukemia. The GI50 in the assay with UACC-62 melanoma is less than 0.0133 µM; with IGROV1 ovarian it was less than 10 nM; with RXF 393 renal, less than 0.01 µM; with OVCAR-8 ovarian it was 58.4 nM. Also, the TGI in the assay with TK-10 renal stood at 27.5 µM; in the assay on NCI-H226 lung it was 0.983 µM; in the assay on HT29 colon, 0.603 µM; in the assay on HL-60(TB) leukemia it was 0.102 µM; in the assay on RPMI-8226 leukemia, 0.355 µM; with UACC-62 melanoma, 0.0906 µM. In addition, the TGI in the assay with IGROV1 ovarian came out at 0.35 µM; in the assay with OVCAR-8 ovarian it was 4.84 µM.
Take `O=c1[nH]cnc2c1nnn2[C@@H]1O[C@H](CO)[C@@H](O)[C@H]1O`: the GI50 is 9.1 µM in the assay on TK-10 renal; 30.1 µM with NCI-H226 lung; 4.51 µM in the assay with HT29 colon; 3.7 µM with K-562 leukemia; 1560 nM in the assay with HL-60(TB) leukemia; 2680 nM in the assay with RPMI-8226 leukemia. Also, the GI50 is 5.75 µM in the assay with UACC-62 melanoma, 2570 nM in the assay with IGROV1 ovarian, 4.31 µM in the assay with RXF 393 renal and 843 nM in the assay on OVCAR-8 ovarian. For the same molecule, the TGI with TK-10 renal is more than 100 µM; with NCI-H226 lung, more than 100 µM; in the assay with HT29 colon, more than 100 µM; in the assay with K-562 leukemia it was more than 100 µM; in the assay on HL-60(TB) leukemia, 39.5 µM; in the assay with RPMI-8226 leukemia, 25 µM. Moreover, the TGI is 84.4 µM in the assay on UACC-62 melanoma, 58.1 µM in the assay with IGROV1 ovarian, more than 100 µM in the assay on RXF 393 renal and more than 100 µM in the assay with OVCAR-8 ovarian.
In the case of `CC1CC(C)C(=O)C(C(=O)CC2CC(=O)NC2=O)C1` (stereo not drawn), the TGI with TK-10 renal, in the assay on NCI-H226 lung, with HT29 colon, in the assay with K-562 leukemia, in the assay with HL-60(TB) leukemia and in the assay on RPMI-8226 leukemia was more than 100 µM in each case. Further, the TGI in the assay on UACC-62 melanoma, in the assay on IGROV1 ovarian, with RXF 393 renal and in the assay on OVCAR-8 ovarian was more than 100 µM in each case.
`CCOC(=O)CCc1c(C)c2ccc(O)cc2oc1=O`: the TGI in the assay with TK-10 renal, in the assay with NCI-H226 lung, in the assay with HT29 colon, with K-562 leukemia, with HL-60(TB) leukemia and in the assay on RPMI-8226 leukemia was more than 100 µM throughout. For the same molecule, the TGI in the assay on UACC-62 melanoma, in the assay on IGROV1 ovarian, with RXF 393 renal and in the assay with OVCAR-8 ovarian was more than 100 µM in each case.
On to `C=C1C(=O)O[C@H]2[C@H]1CC/C(COC(=O)N[C@@H](Cc1c[nH]c3ccccc13)C(=O)OC)=C\CC[C@@]1(C)O[C@@H]21`, for which the GI50 was 1.72 µM with TK-10 renal; 15.4 µM in the assay on NCI-H226 lung; 1.44 µM in the assay on HT29 colon; 0.362 µM in the assay on K-562 leukemia; 363 nM in the assay on HL-60(TB) leukemia; 527 nM with RPMI-8226 leukemia. Also, the GI50 with UACC-62 melanoma is 1.38 µM; in the assay on IGROV1 ovarian, 1220 nM; in the assay on RXF 393 renal, 0.998 µM; in the assay with OVCAR-8 ovarian it was 2620 nM. The TGI worked out at 3.19 µM with TK-10 renal; 33.5 µM in the assay on NCI-H226 lung; 3.04 µM with HT29 colon; 5.18 µM in the assay with K-562 leukemia; 1.89 µM with HL-60(TB) leukemia; 2.71 µM in the assay with RPMI-8226 leukemia. Moreover, the TGI with UACC-62 melanoma turned out to be 2.84 µM; with IGROV1 ovarian, 2.67 µM; in the assay with RXF 393 renal, 2.29 µM; with OVCAR-8 ovarian, 10.3 µM.
As to `COc1cc(N)ccc1Nc1c2ccccc2nc2ccccc12`, the GI50 is 14.6 µM in the assay with TK-10 renal; 2.35 µM in the assay with NCI-H226 lung; 3.29 µM with HT29 colon; 3.45 µM in the assay on K-562 leukemia; 5490 nM in the assay on HL-60(TB) leukemia; 5270 nM in the assay on RPMI-8226 leukemia. The GI50 with UACC-62 melanoma is 12.9 µM; in the assay on IGROV1 ovarian, 10200 nM; in the assay on RXF 393 renal, 11.5 µM; with OVCAR-8 ovarian, 10200 nM. The TGI in the assay with TK-10 renal was 30.2 µM; with NCI-H226 lung it was 10.2 µM; in the assay on HT29 colon, 11 µM; in the assay on K-562 leukemia, more than 28.8 µM; in the assay on HL-60(TB) leukemia, 18.5 µM; with RPMI-8226 leukemia it was more than 29.9 µM. Further, the TGI in the assay with UACC-62 melanoma is 31.2 µM; in the assay on IGROV1 ovarian, more than 59.4 µM; with RXF 393 renal, 27 µM; in the assay with OVCAR-8 ovarian it was 36 µM.
Consider `CC(=O)Oc1cc2c(=O)oc3c(OC(C)=O)c(OC(C)=O)c(OC(C)=O)c4c(=O)oc(c1OC(C)=O)c2c34`, for which the TGI in the assay with TK-10 renal is more than 100 µM; in the assay on NCI-H226 lung, 99 µM; in the assay on HT29 colon, more than 100 µM; in the assay with K-562 leukemia it was more than 100 µM; in the assay on HL-60(TB) leukemia, more than 100 µM; in the assay with RPMI-8226 leukemia it was more than 100 µM. In addition, the TGI with UACC-62 melanoma was more than 100 µM; with IGROV1 ovarian, more than 100 µM; in the assay on RXF 393 renal it was 32 µM; with OVCAR-8 ovarian it was more than 100 µM.
For the molecule `Cc1cc(-c2cc(C)c(O)c(C(C)(C)C)c2)cc(C(C)(C)C)c1O`, the TGI in the assay on TK-10 renal was 24.5 µM and 23.2 µM; in the assay on NCI-H226 lung, 22.6 µM and 35.9 µM; with HT29 colon, 12.7 µM and 16.4 µM; with K-562 leukemia, 25.4 µM and 37.5 µM; in the assay with HL-60(TB) leukemia, 26.7 µM and 32.7 µM; in the assay on RPMI-8226 leukemia it was 45.9 µM and 50.4 µM. The TGI was 26.1 µM and 26.8 µM in the assay on UACC-62 melanoma; 41.6 µM and 24.3 µM with IGROV1 ovarian; 25.5 µM and 26.1 µM in the assay on RXF 393 renal; 31.5 µM and 26.1 µM in the assay on OVCAR-8 ovarian.
